The record followed here is patent publication US5817800A, “Inhibitors of β-glucuronidase and their use in the treatment of carcinamatosis and inflammation” (Hoechst Aktiengesellschaft, priority 1996, dated 1998).

Structures can show the parent of a compound that is named as a salt.

This assay addresses T1, human β-glucuronidase (Homo sapiens, UniProt P08236).
T1 sequence (P08236 23-651): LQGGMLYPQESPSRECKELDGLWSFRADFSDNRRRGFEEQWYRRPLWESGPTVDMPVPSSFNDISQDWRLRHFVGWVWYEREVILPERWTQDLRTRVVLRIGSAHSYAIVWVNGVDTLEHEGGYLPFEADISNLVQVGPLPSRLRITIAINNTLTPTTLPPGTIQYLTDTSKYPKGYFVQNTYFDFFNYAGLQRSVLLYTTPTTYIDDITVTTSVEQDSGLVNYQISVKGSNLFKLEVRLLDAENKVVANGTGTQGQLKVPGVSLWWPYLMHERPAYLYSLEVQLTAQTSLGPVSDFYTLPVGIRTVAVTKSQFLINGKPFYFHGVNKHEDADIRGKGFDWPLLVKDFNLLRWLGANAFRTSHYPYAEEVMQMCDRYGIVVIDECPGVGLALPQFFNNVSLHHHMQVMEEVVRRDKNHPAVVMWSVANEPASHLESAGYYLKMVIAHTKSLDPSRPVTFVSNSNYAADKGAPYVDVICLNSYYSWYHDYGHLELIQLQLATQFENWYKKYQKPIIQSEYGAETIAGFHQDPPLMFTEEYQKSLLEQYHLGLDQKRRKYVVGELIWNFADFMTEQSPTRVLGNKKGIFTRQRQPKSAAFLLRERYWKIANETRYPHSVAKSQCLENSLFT
The assay is described as follows: Inhibition of human β-glucuronidase (4-methylumbelliferyl-β-D-glucuronide substrate, fluorescence). As to conditions: substrate 4-methylumbelliferyl-β-D-glucuronide; 200 mM sodium acetate, 0.1 mg/ml BSA, pH 5; 10 min, 37° C. The class given is biochemical. On the procedure: The inhibition of human β-glucuronidase was determined using 4-methylumbelliferyl-β-D-glucuronide as a substrate. The test mixture contained 75 μl of 2.5 mM 4-methylumbelliferyl-β-D-glucuronide, 25 μl of enzyme (0.6 μg/ml) and 10 μl of the compound of the formula I in a concentration range from 0.0001 to 100 mM, all in 200 mM sodium acetate buffer and 0.1 mg/ml bovine serum albumin (BSA), pH 5. After a 10-minute incubation at 37° C., the mixture was stopped with 1.5 ml of 0.2 M glycine/0.2% SDS, pH 11.7. The methylumbelliferone released by the enzyme was measured in a fluorescence photometer at 360 nm excitation and 450 nm emission wavelength.
The IC50 -values were calculated from the inhibitor dilution series using the software program GraFit 2.0 (Erithacus Software Ltd.).

By IC50 is commonly meant the point on the concentration scale where inhibition reaches its midpoint. A high value points to lower potency.

`O=C(Nc1ccccc1)O/N=C1\O[C@H](C(=O)O)[C@@H](O)[C@H](O)[C@H]1O` [Example 1, (Z)-O-(D-Glucopyranuronosylidene)amino N-phenylcarbamate (sodium salt)] displayed an IC50 of 0.0006 mM.
Turning to `O=C(Nc1ccccc1)O/N=C1\O[C@H](P(=O)(O)O)[C@@H](O)[C@H](O)[C@H]1O` [Example 2, Sodium (5R,Z)-O-(5-C-phosphonato-D-xylopyranosylidene) amino N-phenylcarbamate], the 50% inhibitory concentration (IC50) stood at 11 mM.
